# Experiments:
# CCM3^-/- CI-huVECs [1] = test: CyQuant cell proliferation assay combined with mutant allele frequencies, co-culture (mutant cells); type: cell-based, human; details: six days
# Description: (§1) Clonally expanded CI-huVEC lines with biallelic loss-of-function variants in the first coding exon of CCM3 have been described before or were established according to a published CRISPR/Cas9 genome editing protocol. Blood outgrowth endothelial cells (BOECs) were cultured in EGM-2 medium (Lonza, Basel, Switzerland) supplemented with 18 % FCS. With the approval of the local ethics committee (University Medicine Greifswald, Germany; No.: BB 047/14a), CCM1^-/- BOECs had been established previously from CCM1^+/- BOECs of a CCM1 mutation carrier with CRISPR/Cas9 genome editing. Mutant and wild-type ECs were co-cultured in 96-well plates under standard culture conditions with the indicated mutant-to-wild-type ratios. 2500 cells were seeded per well. The proliferation rate of mutant and wild-type ECs in monoculture was quantified with the CyQuant® Cell Proliferation Assay Kit (C7026, Thermo Fisher Scientific). To discriminate the proliferation rates of CCM3^+/+ and CCM3^-/- CI-huVEC in co-culture, the CyQuant® Cell Proliferation Assay results were combined with mutant allele frequencies that had been determined by amplicon deep sequencing. To analyse their sensitivity to apoptosis, mutant and wild-type ECs were seeded in 96-well plates with 15.000 cells per well, and treated with staurosporine ([…], Sigma-Aldrich, St. Louis, MO, USA) 24 h later. The Caspase-3 DEVD-R110 Fluorometric HTS Assay Kit (30009, Biotium, Fremont, CA, USA), the Cell Meter^TM Caspase 8 Activity Apoptosis Assay Kit (22798, AAT Bioquest, Sunnyvale, CA, USA), and the Cell Meter^TM Caspase 9 Activity Apoptosis Assay Kit (22799, AAT Bioquest) were used following the manufacturer's instructions.
# CCM3^+/+ CI-huVECs = test: CyQuant cell proliferation assay combined with mutant allele frequencies, co-culture (wild-type cells); type: cell-based, human; details: six days
# Description: as §1, with “The Caspase-3 DEVD-R110 Fluorometric HTS Assay Kit (30009, Biotium, Fremont, CA, USA), the Cell Meter^TM Caspase 8 Activity Apoptosis Assay Kit (22798, AAT Bioquest, Sunnyvale, CA, USA), and the Cell Meter^TM Caspase 9 Activity Apoptosis Assay Kit (22799, AAT Bioquest) were used following the manufacturer's instructions.” left out
# [2] = test system: CCM3^+/+ and CCM3^-/- CI-huVECs; test: Cell viability after compound treatment; type: cell-based, human; details: 72 h after treatment (Fig. 15)
# CCM3^-/- CI-huVECs [3] = test: Targeted RNA sequencing (apoptosis and cell death panel); type: cell-based, human; details: 10 µM, 24 h
# From the text: RNA was extracted using the PeqGold TriFast reagent (Peqlab-VWR, Radnor, PA, USA) and purified using the Direct-zol RNA MiniPrep Plus Kit (Zymo Research, Irvine, CA, USA). A Qubit 4.0 (Thermo Fisher Scientific) and the Qubit RNA BR Assay Kit (Q10211, Thermo Fisher Scientific) were used to measure RNA concentrations. RNA sample integrity was controlled on a 2100 Bioanalyzer using the RNA 6000 Nano Kit (Agilent, Santa Clara, CA, USA). A QIAseq Targeted Human Apoptosis and Cell Death RNA Panel (RHS-002Z, QIAGEN, Hilden, Germany) was used to prepare RNA sequencing libraries according to the manufacturer's instructions. After quality control with the High Sensitivity DNA Kit on a 2100 Bioanalyzer instrument (Agilent), the pooled libraries were sequenced on a MiSeq (Illumina) with 1x151 cycles. Differential gene expression of RNA sequencing data was carried out using the QIAseq Targeted RNA Primary and Secondary Analysis Tool (QIAGEN).
# CCM3^-/- BMECs = test: hiPSC-derived BMEC co-culture, fluorescent imaging of clonal expansion; type: cell-based, human; details: 10 µM for six days, released, another six days under standard conditions
# Description: Fluorescently tagged human induced pluripotent stem cells (Coriell Institute, Camden, NJ, USA) were maintained at 37 °C and 5 % CO2 in Essential 8 Flex medium (Thermo Fisher Scientific, Waltham, MA, USA) on plates coated with growth factor reduced matrigel (Corning Inc., Corning, NY, USA). Cells were passaged with 0.5 mM EDTA (Thermo Fisher Scientific). The following endogenously tagged cell lines as part of the Allen Cell Collection (Coriell Institute) were used: AICS-0036-006:WTC-mEGFP-Safe harbor locus (AAVS1)-cl6 and AICS-0054-091:WTC-mTagRFPT-CAAX-Safe harbor locus (AAVS1)-cl91.
# CCM3^+/+ AICS-0054 hiPSCs, CCM3^+/+ and CCM3^-/- AICS-0036 hiPSCS were differentiated into human brain microvacular endothelial-like cells (hBMECs). Briefly, 158,000 cells were seeded in Essential 8 Flex medium containing 10 µM Y-27632 on growth factor reduced Matrigel-coated 6-well plates. After 24 h, differentiation was initiated by substitution of Essential 8 Flex with Essential 6 medium (Thermo Fisher Scientific). Medium was changed daily for 4 days. […] The ratio of EGFP-tagged AICS-0036 cells compared to all cells was determined using the ImageJ software. […]
# colon-tumour xenografts = details: cited from earlier work
compound,measurement,setting,value
"CN1CCN(C(=O)/C=C/c2ccc([N+](=O)[O-])o2)CC1 [NSC59984, (E)-1-(4-methylpiperazin-1-yl)-3-(5-nitrofuran-2yl)prop-2-en-1-one]",Relative proliferation rate of CCM3^-/- CI-huVECs,CCM3^-/- CI-huVECs [1]; 1 µM,4632%
same,Relative proliferation rate of CCM3^-/- CI-huVECs,CCM3^-/- CI-huVECs [1]; 5 µM,1671%
same,Relative proliferation rate of CCM3^-/- CI-huVECs,CCM3^-/- CI-huVECs [1]; 10 µM,419%
same,Proliferation rate of wild-type ECs,CCM3^+/+ CI-huVECs; 10 µM,295%
same,Proliferation rate of wild-type ECs,"CCM3^+/+ CI-huVECs; starting value of the decrease, concentration not printed (by parallel 1 µM)",761%
same,Cell viability differences between CCM3^+/+ and CCM3^-/- CI-huVECs,[2],No cell viability differences
same,"Expression of CDKN1A (p21), FC (fold change NSC59984 vs. DMSO treatment)",CCM3^-/- CI-huVECs [3],2.33
same,"Expression of GADD45A, FC (fold change NSC59984 vs. DMSO treatment)",CCM3^-/- CI-huVECs [3],2.11
same,Expression of apoptosis-related p53 target genes BBC3 (PUMA) or PMAIP1 (Noxa),CCM3^-/- CI-huVECs [3],unaffected
same,Clonal expansion of CCM3^-/- BMECs in co-culture,CCM3^-/- BMECs,blocked the clonal expansion of CCM3^-/- BMECs in co-culture
same,Adverse effects in xenograft mice,colon-tumour xenografts,Without apparent adverse effects
same,Growth of colon-tumour xenografts,colon-tumour xenografts; mice,repressed the growth of colon-tumour xenografts in mice
